Assay results as given in patent publication US11179449B2, “Immunogenic preprocalcitonin peptides” (Institut Gustave Roussy, priority 2015, dated 2021).

Columns and labels:
[1] = test system: PBMC of patients with non-small cell lung cancer (NSCLC); experiment: In vitro stimulation of PBMC of NSCLC patients with 9- or 10-aa ppCT peptides, CD8+/IFNγ+ cells by flow cytometry; type: cell-based, human
Method: The peripheral blood mononuclear cells (PBMC) of 11 patients with non-small cell lung cancer (NSCLC) were isolated from the peripheral blood by Ficoll. For each peptide, the PBMC were stimulated twice (D0 and D7) with 20 μM of peptide. The PBMC were cultivated for 2 weeks on 96-well plates, at a rate of 20 million cells/plate, on complete medium (RPMI 1640, 10% SAB, 1% sodium pyruvate, 0.1% penicillin/[…]) in the presence of IL-2 (20 IU/ml)+IL-4 (10 ng/ml)+IL-7 (10 ng/ml).
After 15 days, the PBMC are again stimulated with 2.5 μM of the peptide used during the first stimulation step, in the presence of 100 μg/ml of Brefeldin A, and incubated for 6 hours at 37° C., 5% CO2. The cells are then incubated for 20 minutes with an anti-CD8-APC antibody, then washed in PBS, fixed with PBS-formaldehyde 2% and permeabilised by BSA/saponin. They are then incubated with an anti-IFN-γ-PE antibody. The analysis is carried out by flow cytometry. The statistical study is performed using the Mann-Whitney test and the statistically significant increases are indicated (*p<0.05; **p<0.01; ***p<0.005).

[2] = test system: CD8 T lymphocytes expressing IFNγ (splenocytes); experiment: Immunisation of HLA-A2 transgenic mice with peptide combinations, CD8+/IFNγ+ splenocytes by flow cytometry after ex vivo restimulation; type: in vivo, transgenic mice for the HLA-A2 molecules; conditions: splenocytes of immunised mice
Method: The transgenic mice for the HLA-A2 molecules were immunised 4 times (D0, D7, D14 and D21), under the skin on the flank, with 100 μl of peptide combinations containing an equimolar mixture of 100 μM of each of the peptides and an adjuvant (25 μg of Poly (I:C)) (FIG. 4). At 28 days after the first injection, the mice were sacrificed and the splenocytes were recovered and cultivated overnight in complete medium (RPMI 1640, 10% FBS, 1% sodium pyruvate, 0.1% penicillin/[…]) in the presence of IL-2 (20 IU/ml).
The next day, the splenocytes were stimulated with 2.5 μM of each of the peptides, alone or in combination, in the presence of 10 μg/ml of Brefeldin A and incubated for 6 hours at 37° C., 5% CO2. The cells are then incubated for 20 minutes with an anti-CD8-PE antibody, then washed in PBS, fixed with PBS-formaldehyde 2% and permeabilised with BSA/saponin. They are then incubated with an anti-IFNγ-APC antibody. The analysis is carried out by flow cytometry.

[3] = patients 4, 5 and 7 (respond only to these peptides)

| Sequence | lymphocyte response after stimulation ([1]; patient 3) | lymphocyte response after stimulation [1, 3] | CD8 T lymphocyte response induced by the peptide alone on ex vivo stimulation [2] |
| --- | --- | --- | --- |
| CMLGTYTQDF (synthetic peptide ppCT91-100) | triggers a response | – | – |
| LLAALVQDYV (synthetic peptide ppCT50-59) | triggers a response | trigger a lymphocyte response | strong response |
| FLALSILVL (synthetic peptide ppCT9-17) | – | trigger a lymphocyte response | – |
